From publication PMC8645336, “Benchmarking a highly selective USP30 inhibitor for enhancement of mitophagy and pexophagy” (Life Science Alliance, 2021)

Experiments:
Assay in all cases: biochemical
Parameters in all cases: Ubiquigent DUB profiler selectivity panel, remaining enzyme activity as % of control
Conditions in all cases: read-out: % of control remaining
[1] = target: T1, CYLD (Homo sapiens, UniProt Q9NQC7)
T1 sequence (Q9NQC7 1-956): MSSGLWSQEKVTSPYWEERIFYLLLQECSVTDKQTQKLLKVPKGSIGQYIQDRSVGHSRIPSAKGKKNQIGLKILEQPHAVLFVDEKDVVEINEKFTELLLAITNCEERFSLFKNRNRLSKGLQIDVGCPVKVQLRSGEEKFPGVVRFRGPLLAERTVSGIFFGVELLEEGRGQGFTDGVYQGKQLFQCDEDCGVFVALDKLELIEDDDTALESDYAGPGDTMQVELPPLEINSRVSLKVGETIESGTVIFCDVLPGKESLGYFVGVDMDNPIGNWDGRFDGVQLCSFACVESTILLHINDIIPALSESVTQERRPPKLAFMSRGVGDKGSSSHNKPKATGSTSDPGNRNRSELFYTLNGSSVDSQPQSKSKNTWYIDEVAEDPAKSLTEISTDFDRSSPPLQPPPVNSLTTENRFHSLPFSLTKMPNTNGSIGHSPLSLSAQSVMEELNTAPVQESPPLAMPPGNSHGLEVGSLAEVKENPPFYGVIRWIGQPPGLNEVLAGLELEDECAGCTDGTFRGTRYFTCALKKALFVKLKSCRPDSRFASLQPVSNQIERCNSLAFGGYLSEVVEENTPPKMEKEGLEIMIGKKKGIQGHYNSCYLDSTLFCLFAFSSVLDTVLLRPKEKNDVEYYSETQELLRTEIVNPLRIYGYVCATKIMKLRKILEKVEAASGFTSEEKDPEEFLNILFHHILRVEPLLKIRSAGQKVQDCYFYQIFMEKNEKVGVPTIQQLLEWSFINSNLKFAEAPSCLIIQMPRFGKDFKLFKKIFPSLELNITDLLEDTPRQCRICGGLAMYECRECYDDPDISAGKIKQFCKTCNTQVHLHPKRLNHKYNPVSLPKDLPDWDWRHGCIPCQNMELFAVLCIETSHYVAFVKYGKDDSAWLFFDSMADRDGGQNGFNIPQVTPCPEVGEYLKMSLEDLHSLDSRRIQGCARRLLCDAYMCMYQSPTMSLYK
Outline: (§1)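 CMPD-39 selectivity was profiled at 1-100 μM across >40 DUBs. Cellular engagement used 2 h CMPD-39 pretreatment, then HA-Ub-PA probe for 10 min at 37°C, with USP30 band shift on immunoblot. TOMM20 ubiquitylation was blotted in YFP-PRKN hTERT-RPE1 cells after 1 h antimycin A/oligomycin A (1 μM each).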

[2] = target: USP16 (Homo sapiens, UniProt Q9Y5T5)
Outline: as §1

[3] = target: USP20 (Homo sapiens, UniProt Q9Y2K6)
Outline: as §1

[4] = target: USP46/UAF1/WDR20 (Homo sapiens, UniProt P62068)
Outline: as §1

[5] = target: USP9x (Homo sapiens, UniProt Q93008)
Outline: as §1

Chain of USP20 (Q9Y2K6 whole entry): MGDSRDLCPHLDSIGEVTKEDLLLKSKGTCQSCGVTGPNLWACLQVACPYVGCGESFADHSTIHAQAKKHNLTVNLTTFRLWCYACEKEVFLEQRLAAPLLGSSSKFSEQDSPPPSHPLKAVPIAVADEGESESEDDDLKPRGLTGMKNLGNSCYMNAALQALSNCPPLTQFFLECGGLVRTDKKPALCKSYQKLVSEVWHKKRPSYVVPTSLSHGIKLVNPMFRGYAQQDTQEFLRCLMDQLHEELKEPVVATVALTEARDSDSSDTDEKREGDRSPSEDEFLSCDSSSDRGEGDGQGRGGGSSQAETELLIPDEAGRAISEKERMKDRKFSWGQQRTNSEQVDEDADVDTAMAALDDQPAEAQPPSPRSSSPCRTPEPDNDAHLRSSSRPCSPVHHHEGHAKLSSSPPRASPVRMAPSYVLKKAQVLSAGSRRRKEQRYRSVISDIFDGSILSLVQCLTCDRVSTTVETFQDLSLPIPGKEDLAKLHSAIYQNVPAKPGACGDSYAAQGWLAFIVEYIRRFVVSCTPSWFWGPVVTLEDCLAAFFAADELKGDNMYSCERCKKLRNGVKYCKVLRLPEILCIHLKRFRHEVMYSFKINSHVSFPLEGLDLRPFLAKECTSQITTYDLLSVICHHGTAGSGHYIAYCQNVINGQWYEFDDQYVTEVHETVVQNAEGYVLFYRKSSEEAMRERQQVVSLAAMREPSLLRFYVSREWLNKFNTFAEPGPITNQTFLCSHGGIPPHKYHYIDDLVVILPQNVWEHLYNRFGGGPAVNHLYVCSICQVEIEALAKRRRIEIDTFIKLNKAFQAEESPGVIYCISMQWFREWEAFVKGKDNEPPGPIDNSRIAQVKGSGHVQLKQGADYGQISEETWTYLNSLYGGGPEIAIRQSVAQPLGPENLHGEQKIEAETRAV
Chain of USP16 (Q9Y5T5 whole entry): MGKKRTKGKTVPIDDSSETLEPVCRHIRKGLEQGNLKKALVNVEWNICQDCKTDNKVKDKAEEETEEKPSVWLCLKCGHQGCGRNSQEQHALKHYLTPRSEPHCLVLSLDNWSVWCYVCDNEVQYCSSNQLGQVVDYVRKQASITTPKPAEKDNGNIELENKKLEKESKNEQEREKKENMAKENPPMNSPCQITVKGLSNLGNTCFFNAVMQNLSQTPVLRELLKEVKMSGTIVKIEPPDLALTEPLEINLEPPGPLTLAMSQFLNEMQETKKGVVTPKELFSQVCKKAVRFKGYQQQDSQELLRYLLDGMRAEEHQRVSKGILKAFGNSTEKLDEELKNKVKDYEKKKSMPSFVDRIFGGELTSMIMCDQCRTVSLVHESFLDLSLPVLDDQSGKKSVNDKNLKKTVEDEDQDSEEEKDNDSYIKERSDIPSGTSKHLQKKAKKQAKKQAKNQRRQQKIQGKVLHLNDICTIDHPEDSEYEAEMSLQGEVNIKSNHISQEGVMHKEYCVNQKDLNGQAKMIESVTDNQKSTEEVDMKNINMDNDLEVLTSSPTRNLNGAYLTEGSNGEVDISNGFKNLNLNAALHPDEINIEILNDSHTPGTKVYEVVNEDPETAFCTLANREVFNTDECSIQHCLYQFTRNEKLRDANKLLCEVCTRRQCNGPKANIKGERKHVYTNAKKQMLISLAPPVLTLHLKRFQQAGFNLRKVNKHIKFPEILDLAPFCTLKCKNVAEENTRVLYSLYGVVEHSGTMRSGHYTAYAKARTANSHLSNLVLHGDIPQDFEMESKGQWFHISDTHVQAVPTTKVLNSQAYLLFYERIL
Chain of USP9x (Q93008 whole entry): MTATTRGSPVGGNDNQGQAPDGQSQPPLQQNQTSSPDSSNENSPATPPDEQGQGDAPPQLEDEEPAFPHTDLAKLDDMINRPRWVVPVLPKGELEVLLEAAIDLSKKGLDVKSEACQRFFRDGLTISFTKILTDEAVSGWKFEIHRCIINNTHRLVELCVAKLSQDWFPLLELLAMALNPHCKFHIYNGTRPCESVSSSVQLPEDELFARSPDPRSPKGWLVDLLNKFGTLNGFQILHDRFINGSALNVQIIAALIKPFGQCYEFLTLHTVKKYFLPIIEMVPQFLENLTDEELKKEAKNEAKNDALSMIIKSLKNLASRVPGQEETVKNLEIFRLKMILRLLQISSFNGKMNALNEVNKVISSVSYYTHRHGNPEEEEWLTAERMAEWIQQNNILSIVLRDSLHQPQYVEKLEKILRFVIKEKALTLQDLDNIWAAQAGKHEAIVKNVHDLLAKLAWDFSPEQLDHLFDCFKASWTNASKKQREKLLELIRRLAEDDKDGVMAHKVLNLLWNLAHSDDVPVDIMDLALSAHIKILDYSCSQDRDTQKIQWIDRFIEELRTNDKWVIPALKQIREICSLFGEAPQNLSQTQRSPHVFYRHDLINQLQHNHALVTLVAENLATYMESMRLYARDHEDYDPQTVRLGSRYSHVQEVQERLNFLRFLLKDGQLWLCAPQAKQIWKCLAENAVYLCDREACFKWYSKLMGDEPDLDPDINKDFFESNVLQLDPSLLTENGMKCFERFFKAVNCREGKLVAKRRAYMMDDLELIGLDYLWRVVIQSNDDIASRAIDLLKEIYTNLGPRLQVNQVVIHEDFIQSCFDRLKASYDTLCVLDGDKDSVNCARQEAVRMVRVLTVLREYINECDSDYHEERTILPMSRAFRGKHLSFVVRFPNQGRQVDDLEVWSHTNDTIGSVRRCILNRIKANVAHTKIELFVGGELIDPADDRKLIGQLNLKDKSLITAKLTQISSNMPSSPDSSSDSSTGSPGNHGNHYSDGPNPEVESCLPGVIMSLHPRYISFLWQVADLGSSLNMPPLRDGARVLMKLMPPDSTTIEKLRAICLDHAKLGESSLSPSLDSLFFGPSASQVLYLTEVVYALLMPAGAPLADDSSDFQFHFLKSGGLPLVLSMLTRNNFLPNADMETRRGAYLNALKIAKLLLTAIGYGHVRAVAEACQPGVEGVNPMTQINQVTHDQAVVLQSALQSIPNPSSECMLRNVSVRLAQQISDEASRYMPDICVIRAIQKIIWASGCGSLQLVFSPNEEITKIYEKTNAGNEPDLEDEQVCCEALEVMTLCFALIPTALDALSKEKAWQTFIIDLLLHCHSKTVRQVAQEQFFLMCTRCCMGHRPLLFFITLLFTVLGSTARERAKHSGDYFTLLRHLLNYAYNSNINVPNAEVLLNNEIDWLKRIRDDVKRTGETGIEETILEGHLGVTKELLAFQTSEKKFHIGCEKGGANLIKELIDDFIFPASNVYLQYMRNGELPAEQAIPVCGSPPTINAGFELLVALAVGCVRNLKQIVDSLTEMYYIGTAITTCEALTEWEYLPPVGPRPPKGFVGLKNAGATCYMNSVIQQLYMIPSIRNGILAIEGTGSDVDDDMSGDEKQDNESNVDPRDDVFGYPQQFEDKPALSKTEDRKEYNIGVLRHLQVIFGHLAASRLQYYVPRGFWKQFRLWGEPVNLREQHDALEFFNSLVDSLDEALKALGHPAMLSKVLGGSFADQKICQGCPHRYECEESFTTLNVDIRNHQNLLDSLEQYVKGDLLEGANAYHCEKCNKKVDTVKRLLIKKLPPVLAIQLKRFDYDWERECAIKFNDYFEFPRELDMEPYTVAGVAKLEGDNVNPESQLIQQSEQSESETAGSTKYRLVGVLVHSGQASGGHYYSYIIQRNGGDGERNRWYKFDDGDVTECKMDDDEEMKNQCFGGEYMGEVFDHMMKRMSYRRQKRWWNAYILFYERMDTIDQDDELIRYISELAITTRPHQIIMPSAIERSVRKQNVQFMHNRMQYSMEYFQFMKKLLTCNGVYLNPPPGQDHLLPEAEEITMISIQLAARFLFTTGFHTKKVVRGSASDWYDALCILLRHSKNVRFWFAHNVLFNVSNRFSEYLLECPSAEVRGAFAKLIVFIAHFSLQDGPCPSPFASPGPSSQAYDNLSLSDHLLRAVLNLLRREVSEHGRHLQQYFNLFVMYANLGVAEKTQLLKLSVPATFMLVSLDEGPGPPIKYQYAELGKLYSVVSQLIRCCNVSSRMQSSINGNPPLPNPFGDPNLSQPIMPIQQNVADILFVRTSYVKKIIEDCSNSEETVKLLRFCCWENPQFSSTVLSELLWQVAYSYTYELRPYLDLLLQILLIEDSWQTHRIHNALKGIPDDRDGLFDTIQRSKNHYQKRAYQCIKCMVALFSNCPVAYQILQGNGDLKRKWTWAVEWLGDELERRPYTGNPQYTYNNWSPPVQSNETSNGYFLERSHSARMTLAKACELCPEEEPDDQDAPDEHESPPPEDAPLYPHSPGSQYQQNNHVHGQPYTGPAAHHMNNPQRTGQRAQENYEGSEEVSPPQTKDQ

remaining activity at 1 µM [1]: 107% | remaining activity at 10 µM [1]: 102% | remaining activity at 100 µM [1]: 98% | remaining activity at 1 µM [2]: 111% | remaining activity at 10 µM [2]: 100% | remaining activity at 100 µM [2]: 104% | remaining activity at 1 µM [3]: 113% | remaining activity at 10 µM [3]: 110% | remaining activity at 100 µM [3]: 155% | remaining activity at 1 µM [4]: 110% | remaining activity at 10 µM [4]: 97.5% | remaining activity at 100 µM [4]: 97.4% | remaining activity at 1 µM [5]: 104% | remaining activity at 10 µM [5]: 108% | remaining activity at 100 µM [5]: 98.3%
Structure (SMILES): CC(C)(C)NS(=O)(=O)c1ccc(NC(=O)[C@H](Cc2ccccc2)NC(=O)c2ccc(F)cc2)cc1 [compound 39, CMPD-39]
